Results taken from ChEMBL document CHEMBL1201862, “PubChem BioAssay data set” (2004).
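96-well plates; 48 h exposure; 5 concentrations. Endpoints by linear interpolation between flanking doses. Not reached: highest tested concentration assigned. The concentration for 50% growth inhibition is given as GI50.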 The source made the active and inactive calls. Cut-off read from the data, not from the text of the source: active = GI50 up to about 1.1 µM and inactive = higher.

How the values were obtained:
Assay in all cases: DTP human tumour cell line panel, 48 h
[1] = tested on: OVCAR-5
[2] = tested on: HOP-62
[3] = tested on: SNB-75
[4] = tested on: MCF7
[5] = tested on: CCRF-CEM
[6] = tested on: SK-OV-3
[7] = tested on: MDA-MB-435
[8] = tested on: OVCAR-4
[9] = tested on: IGROV-1
[10] = tested on: K562
[11] = tested on: COLO 205
[12] = tested on: HT-29
[13] = tested on: HCT-116
[14] = tested on: Malme-3M
[15] = tested on: MDA-N
[16] = tested on: RXF 393
[17] = tested on: CAKI-1
[18] = tested on: HCT-15
[19] = tested on: LOX IMVI

Row | Structure (SMILES) | GI50 [1] | GI50 [2] | GI50 [3] | GI50 [4] | GI50 [5] | GI50 [6] | GI50 [7] | GI50 [8] | GI50 [9] | GI50 [10] | GI50 [11] | GI50 [12] | GI50 [13] | GI50 [14] | GI50 [15] | GI50 [16] | GI50 [17] | GI50 [18] | GI50 [19]
1 | CC1C2CC(C(S(=O)(=O)O)C2=O)C1(C)C (stereo unspecified) | > 100 µM (inactive) | > 100 µM (inactive) | > 100 µM (inactive) | > 100 µM (inactive) | > 100 µM (inactive) | > 100 µM (inactive) | > 100 µM (inactive) | > 100 µM (inactive) | > 100 µM (inactive) | > 100 µM (inactive) | > 100 µM (inactive) | > 100 µM (inactive) | > 100 µM (inactive) | > 100 µM (inactive) | > 100 µM (inactive) | > 100 µM (inactive) | – | – | –
2 | O=[N+]([O-])c1ccc2c(c1)Sc1ccccc1N2CCCCCl | > 100 µM (inactive) | > 100 µM (inactive) | > 100 µM (inactive) | > 100 µM (inactive) | > 100 µM (inactive) | – | > 100 µM (inactive) | 3.86 µM (inactive) | > 100 µM (inactive) | 70.6 µM (inactive) | > 100 µM (inactive) | > 100 µM (inactive) | > 100 µM (inactive) | > 10 µM (inactive) | > 100 µM (inactive) | > 100 µM (inactive) | > 100 µM (inactive) | > 100 µM | > 100 µM (inactive)
3 | O=c1[nH][nH]c(=O)n1/N=C/c1ccccc1 | > 100 µM (inactive) | > 100 µM (inactive) | > 100 µM (inactive) | > 100 µM (inactive) | > 100 µM (inactive) | > 100 µM (inactive) | > 100 µM (inactive) | – | > 100 µM (inactive) | > 100 µM (inactive) | > 100 µM (inactive) | > 100 µM (inactive) | > 100 µM (inactive) | – | > 100 µM (inactive) | – | > 100 µM (inactive) | > 100 µM | > 100 µM (inactive)
4 | CCOC(=O)C(C)c1nc2cc(F)c(N3CCOCC3)cc2[nH]c1=O (stereo unspecified) | > 100 µM (inactive) | > 100 µM (inactive) | > 100 µM (inactive) | > 100 µM (inactive) | > 100 µM (inactive) | > 100 µM (inactive) | > 100 µM (inactive) | > 100 µM (inactive) | > 100 µM (inactive) | > 100 µM (inactive) | > 100 µM (inactive) | > 100 µM (inactive) | > 100 µM (inactive) | > 100 µM (inactive) | > 100 µM (inactive) | > 100 µM (inactive) | > 100 µM (inactive) | > 100 µM | –
5 | COc1cc(COC(=O)N2CCCCC2C(=O)O)c([N+](=O)[O-])cc1OC (stereo unspecified) | > 100 µM (inactive) | > 100 µM (inactive) | > 100 µM (inactive) | > 100 µM (inactive) | > 100 µM (inactive) | > 100 µM (inactive) | > 100 µM (inactive) | – | > 100 µM (inactive) | > 100 µM (inactive) | > 100 µM (inactive) | > 100 µM (inactive) | > 100 µM (inactive) | > 100 µM (inactive) | > 100 µM (inactive) | > 100 µM (inactive) | – | > 100 µM | –
6 | O=C1/C(=C/c2ccco2)N=C(c2ccccc2)N1c1cc2cc(Sc3ccccc3)ccc2[nH]1 | 21.6 µM (inactive) | – | > 25 µM (inactive) | 11 µM (inactive) | 2.72 µM (inactive) | – | 6.55 µM (inactive) | > 25 µM (inactive) | > 25 µM (inactive) | 7.96 µM (inactive) | 8.51 µM (inactive) | 20 µM (inactive) | > 25 µM (inactive) | > 25 µM (inactive) | 7.21 µM (inactive) | 13.1 µM (inactive) | 9.46 µM (inactive) | > 25 µM | 12.3 µM (inactive)
7 | [O-][S+](Nc1ccccc1)c1ccccc1Oc1ccccc1 (stereo unspecified) | > 100 µM (inactive) | 32.7 µM (inactive) | 28.6 µM (inactive) | 60 µM (inactive) | 32.5 µM (inactive) | – | 40.8 µM (inactive) | – | 2.62 µM (inactive) | 48.6 µM (inactive) | > 100 µM (inactive) | 60.5 µM (inactive) | 34.1 µM (inactive) | 30.5 µM (inactive) | 57.1 µM (inactive) | 48.2 µM (inactive) | 39.8 µM (inactive) | 27.7 µM | 19.7 µM (inactive)
8 | NCC(O)CSCc1ccc(Cl)cc1 (stereo unspecified) | > 100 µM (inactive) | > 100 µM (inactive) | – | > 100 µM (inactive) | > 100 µM (inactive) | > 100 µM (inactive) | > 100 µM (inactive) | > 100 µM (inactive) | > 100 µM (inactive) | > 100 µM (inactive) | > 100 µM (inactive) | > 100 µM (inactive) | > 100 µM (inactive) | > 100 µM (inactive) | > 100 µM (inactive) | > 100 µM (inactive) | > 100 µM (inactive) | > 100 µM | > 100 µM (inactive)
